Patent publication US20090274691A1, “Use of CD25 binding molecules in steroid-resistant patients” (priority 2001, published 2009)
Read-outs that look alike come from different tables or passages of the source.

Key:
[1] = system: PHA-stimulated lymphocytes; assay: Lymphocyte steroid sensitivity: dexamethasone inhibition of PHA-stimulated proliferation with and without basiliximab (Example 1); assay type: cell-based, human; conditions: for Steroid-sensitive (SS) or Steroid-resistant (SR): class by Imax with dexamethasone alone; for PHA-stimulated lymphocyte proliferation (cpm): dexamethasone 10^-6 mol/l; for PHA-stimulated lymphocyte proliferation (cpm) / % suppression / Imax (%): basiliximab 1 mg/l where added; for % suppression: dexamethasone 10^-7 mol/l; for Imax (%): inhibition of proliferation at dexamethasone 10^-6 mol/l
Procedure: Measurement of lymphocyte steroid sensitivity: The sensitivity of peripheral blood lymphocytes to glucocorticoids is assessed in a functional assay i.e. an in vitro proliferation assay stimulated by phytohaemagglutinin (PHA) and inhibited by dexamethasone. (Hearing S D, et al. Gut 1999; 45:382-8; Hearing S D, et al. J Clin Endocrinol Metab 1999; 84:4149-54). Peripheral blood samples are collected at 09:00 hours, and peripheral blood mononuclear cells (PBMC) are separated by buoyancy centrifugation. Buoyancy centrifugation includes the separation of lymphocytes from the blood sample by centrifugation over a ficol gradient. Ficol allows red blood cells to fall through, but prevents the through-movement of lymphocytes. Peripheral blood mononuclear cells (lymphocytes and marocyes) are collected from the ficol/plasma interface. PBMC proliferation is stimulated with PHA and inhibited with dexamethasone at serial 10 fold dilutions between 10^−6 and 10^−10 mol/1. i.e. 10^−6, 10^−7, 10^−8, 10^−9, 10^−10 mol/1. Cell proliferation is measured by tritiated thymidine uptake i.e. after 2 days of incubation, radioisotape labelled thymidine (^3H-thymidine) is added to the lymphocyte culture medium and became incorporated into the DNA of proliferating lymphocyes. After 6 hours the cells are transferred from the incubator and collected on a filter mat using a cell harvester. The cells are then washed out of the well. The lymphocyte DNA that has incorporated the thymidine is trapped in the filter paper. When radioactivity levels are measured the wells which contain high numbers of actively proliferating lymphocytes (and thus will have incorporated lots of thymidine into the DNA) will have high radioactivity levels. […] The results are calculated as mean counts per minute (cpm) of triplicate cultures. Thymidine incorporation for each concentration of dexamethasone is compared to that of PHA stimulated T lymphocytes in the absence of dexamethasone, and expressed as a percentage of the uninhibited positive control. The effect of different concentrations of basiliximab on lymphocyte proliferation is also studied. In addition, an equal concentration of basiliximab is added to each cell culture medium at all concentrations of dexamethasone and the antiproliferative effect measured.
Effect of […]® on steroid sensitivity: For all eight subjects, PHA-stimulated lymphocytes are cultured in the presence of increasing concentrations of dexamethasone (10^−10-10^−6 mol/l) in the presence and absence of basiliximab (1 mg/l). In previous studies of ulcerative colitis carried out by the inventor, maximal suppression (Imax)<60% correlated with a poor response to steroid therapy (clinical steroid resistance). The exact value of Imax cannot be measured as it is the inhibition at an infinitely high level of dexamethasone. Thus, the percentage inhibition of proliferation observed at the maximum dexamethasone concentration applied (10^−6 mol/l) is used as the measure of Imax. In practice, there is good agreement between Imax and the estimated asymptotic value for maximal inhibition obtained from dose-response curves (Hearing S D et al (1999) Clin. Endoctrinol. Metab 84:4149-54). A concentration of dexamethasone of 10^−7 mol/l is approximately equivalent in terms of glucocorticoid activity to the serum concentrations of hydrocortisone achieved with intravenous therapy at standard doses. Thus, to make comparisons with the potential effect of basiliximab in vivo, the steroid sensitising effect of basiliximab at this concentration of dexamethasone may also be of interest. […] The subjects are shown in decreasing order of steroid sensitivity (with the most sensitive on the left).

[2] = system: phytohaemagglutinin stimulated lymphocytes; assay: Lymphocyte steroid sensitivity (Imax) with and without basiliximab, 32 subjects (Example 2); assay type: cell-based, human; conditions: 32 subjects on 41 occasions; basiliximab 1 mg/L where added
Procedure: Peripheral blood lymphocytes are isolated from 32 subjects (25 healthy volunteers and 7 patients with quiescent Ulcerative Colitis), on 41 occasions, using buoyant density centrifugation. Lymphocyte steroid sensitivity is assessed by measuring the antiproliferative effect of dexamethasone (DEX) on phytohaemagglutinin stimulated lymphocytes. Maximum steroid induced suppression is expressed as a % of control lymphocyte proliferation (Imax). Imax is measured in the absence and presence of basiliximab (1 mg/L).

steroid-resistant asthma = conditions: after 8 weeks; cited from earlier work
[3] = system: peripheral blood lymphocytes; conditions: high concentrations of prednisolone, cited from earlier work
[4] = at the dosage levels employed; cited from earlier work

## C[C@@H]1C[C@H]2[C@@H]3CCC4=CC(=O)C=C[C@]4(C)[C@@]3(F)[C@@H](O)C[C@]2(C)[C@@]1(O)C(=O)CO [Dexamethasone, dexamethasone]
[1]; subject 1
  Steroid-sensitive (SS) or Steroid-resistant (SR): SS (steroid-sensitive (Imax>60%; subjects 1-4))
  PHA-stimulated lymphocyte proliferation (cpm): 3100 cpm
  % suppression: 87%
  Imax (%): 92%
[1]; subject 2
  Steroid-sensitive (SS) or Steroid-resistant (SR): SS (steroid-sensitive (Imax>60%; subjects 1-4))
  PHA-stimulated lymphocyte proliferation (cpm): 4109 cpm
  % suppression: 79%
  Imax (%): 84%
[1]; subject 3
  Steroid-sensitive (SS) or Steroid-resistant (SR): SS (steroid-sensitive (Imax>60%; subjects 1-4))
  PHA-stimulated lymphocyte proliferation (cpm): 9477 cpm
  % suppression: 65%
  Imax (%): 77%
[1]; subject 4
  Steroid-sensitive (SS) or Steroid-resistant (SR): SS (steroid-sensitive (Imax>60%; subjects 1-4))
  PHA-stimulated lymphocyte proliferation (cpm): 11568 cpm
  % suppression: 42%
  Imax (%): 64%
[1]; subject 5
  Steroid-sensitive (SS) or Steroid-resistant (SR): SR (steroid-resistant (Imax<60%; subjects 5-8))
  PHA-stimulated lymphocyte proliferation (cpm): 21685 cpm
  % suppression: 20%
  Imax (%): 52%
[1]; subject 6
  Steroid-sensitive (SS) or Steroid-resistant (SR): SR (steroid-resistant (Imax<60%; subjects 5-8))
  PHA-stimulated lymphocyte proliferation (cpm): 36495 cpm
  % suppression: 32%
  Imax (%): 45%
[1]; subject 7
  Steroid-sensitive (SS) or Steroid-resistant (SR): SR (steroid-resistant (Imax<60%; subjects 5-8))
  PHA-stimulated lymphocyte proliferation (cpm): 18669 cpm
  % suppression: 29%
  Imax (%): 35%
[1]; subject 8
  Steroid-sensitive (SS) or Steroid-resistant (SR): SR (steroid-resistant (Imax<60%; subjects 5-8))
  PHA-stimulated lymphocyte proliferation (cpm): 24681 cpm
  % suppression: 36%
  Imax (%): 33%
[2]
  Median Imax (%): 78.0%

## CN(Cc1cnc2nc(N)nc(N)c2n1)c1ccc(C(=O)N[C@@H](CCC(=O)O)C(=O)O)cc1 [methotrexate]
steroid-resistant asthma
  bronchial muscosal inflammation: reduced
  lymphocyte steroid sensitivity: increased

## C[C@]12C=CC(=O)C=C1CC[C@@H]1[C@@H]2[C@@H](O)C[C@@]2(C)[C@H]1CC[C@]2(O)C(=O)CO [prednisolone]
[3]; lymphocytes of steroid-resistant SLE group
  percentage of apoptotic cells: 44.8%
[3]; lymphocytes of steroid-sensitive SLE group
  percentage of apoptotic cells: 68.8%

## daclizumab
[4]
  Side-effects / safety of administration: safe
